The results in this text go back to BindingDB's records for doi:10.3109/14756366.2010.543420 (Shanghai Institute of Material Medica, Chinese Academy of …, 2011).

A value given as a limit tells only on which side of the number the result lay.

In the test the target is Beta-secretase 1 (Homo sapiens, UniProt P56817). Description: Biochemical Assay. The conditions noted are these: pH 4.5; 37 °C. The protocol:
Briefly, the assay was carried out by incubation of the substrate peptide (5 μM), BACE1 enzyme (550 ng/mL) that was expressed and purified from insect expression system and varied concentrations of compounds at pH 4.5. After 1 h incubation at 37°C, stop buffer (3 M sodium acetate) was introduced into the reaction mixture to stop the reaction. Finally, the fluorescence intensity was measured on a TECAN GENios reader (Tecan) at room temperature with excitation at 420 nm and emission at 530 nm.

Chain of Beta-secretase 1 (P56817 whole entry): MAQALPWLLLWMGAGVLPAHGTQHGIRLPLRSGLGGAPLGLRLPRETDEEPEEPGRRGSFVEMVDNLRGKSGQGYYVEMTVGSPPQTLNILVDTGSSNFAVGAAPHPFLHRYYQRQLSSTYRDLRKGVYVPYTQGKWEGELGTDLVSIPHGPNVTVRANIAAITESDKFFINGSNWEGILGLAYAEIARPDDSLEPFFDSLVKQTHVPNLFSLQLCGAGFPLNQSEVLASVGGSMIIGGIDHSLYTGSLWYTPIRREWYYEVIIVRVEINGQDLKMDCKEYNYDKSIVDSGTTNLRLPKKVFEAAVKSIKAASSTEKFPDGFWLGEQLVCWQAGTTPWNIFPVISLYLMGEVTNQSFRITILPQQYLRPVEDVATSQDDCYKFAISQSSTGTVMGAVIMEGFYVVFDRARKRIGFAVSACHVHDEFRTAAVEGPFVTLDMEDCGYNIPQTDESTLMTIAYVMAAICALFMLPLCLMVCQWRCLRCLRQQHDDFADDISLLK

As to `O=C(/C=C/c1ccccc1O)c1ccccc1O`, the IC50 is greater than 60 µM.
The same measure for `O=C(/C=C/c1ccccc1O)c1cc(O)ccc1O`: 41.8 µM; for `C=CCOc1ccccc1/C=C/C(=O)c1ccc(O)cc1O`: greater than 60 µM.
Next, `O=C(/C=C/c1ccccc1Cl)c1ccc(O)cc1O`: 11.4 µM; `O=C(/C=C/c1ccccc1O)c1ccc(O)cc1O` [2,2'',4''-Trihydroxychalcone]: 2.45 µM; `O=C(/C=C/c1ccc(O)cc1O)c1ccc(O)cc1O` [2,2',4,4'-tetrahydroxychalcone]: 0.62 µM.
Compound `O=C(/C=C/c1ccccc1O)c1cccc(O)c1O` [(E)-1-(2,3-dihydroxyphenyl)-3-(2-hydroxyphenyl)-2-propen-1-one (12)] came in with an IC50 of 21.8 µM.
The same measure for `O=C(/C=C/c1cccc(O)c1O)c1ccc(O)cc1O` [(E)-1-(2,4-dihydroxyphenyl)-3-(2,3-dihydroxyphenyl)-2-propen-1-one (17)]: 0.27 µM.
`O=C(/C=C/c1cc(O)ccc1O)c1ccc(O)cc1O` [(E)-1-(2,4-dihydroxyphenyl)-3-(2,5-dihydroxyphenyl)-2-propen-1-one (19)] showed an IC50 of 1.94 µM.
For `O=C(/C=C/c1c(O)cccc1O)c1ccc(O)cc1O` [(E)-1-(2,4-dihydroxyphenyl)-3-(2,6-dihydroxyphenyl)-2-propen-1-one (20)], the IC50 came out at 1.71 µM.
Next, `COc1ccccc1/C=C/C(=O)c1ccc(O)cc1O` [(E)-1-(2,4-dihydroxyphenyl)-3-(2-methoxyphenyl)-2-propen-1-one (4)]: 2.63 µM.
The same measure for `O=C(/C=C/c1ccccc1[N+](=O)[O-])c1ccc(O)cc1O` [(E)-1-(2,4-dihydroxyphenyl)-3-(2-nitrophenyl)-2-propen-1-one (7)]: greater than 60 µM; for `O=C(/C=C/c1cc(O)cc(O)c1)c1ccc(O)cc1O` [(E)-1-(2,4-dihydroxyphenyl)-3-(3,5-dihydroxyphenyl)-2-propen-1-one (22)]: 2.08 µM.
The same measure for `O=C(/C=C/c1ccccc1O)c1c(O)cccc1O` [(E)-1-(2,6-dihydroxyphenyl)-3-(2-hydroxyphenyl)-2-propen-1-one (14)]: 15.6 µM; for `O=C(/C=C/c1ccccc1O)c1ccc(O)c(O)c1` [(E)-1-(3,4-dihydroxyphenyl)-3-(2-hydroxyphenyl)-2-propen-1-one (15)]: 11.8 µM; for `O=C(/C=C/c1ccccc1O)c1cc(O)cc(O)c1` [(E)-1-(3,5-dihydroxyphenyl)-3-(2-hydroxyphenyl)-2-propen-1-one (16)]: 19.4 µM.
Turning to `O=C(/C=C/c1ccccc1O)c1cccc(O)c1` [(E)-1-(3-hydroxyphenyl)-3-(2-hydroxyphenyl)-2-propen-1-one (10)], the midpoint of inhibition, the IC50, lay at 30.4 µM.
Consider `O=C(/C=C/c1ccccc1O)c1ccc(O)cc1` [(E)-1-(4-hydroxyphenyl)-3-(2-hydroxyphenyl)-2-propen-1-one (11)], for which the IC50 stood at 58.1 µM.
The same measure for `O=C(/C=C/c1cccc(O)c1)c1ccc(O)cc1O` [(E)-3,2'',4''-Trihydroxychalcone]: 8.03 µM; for `O=C(/C=C/c1ccc(O)c(O)c1)c1ccc(O)cc1O` [(E)-3-(3,4-Dihydroxy-phenyl)-1-(2,4-dihydroxy-phenyl)-propenone]: 2.37 µM.
On to `O=C(/C=C/c1ccccc1O)c1ccccc1` [Chalcone, 1], for which the concentration for half-maximal inhibition (IC50) is greater than 60 µM.

For orientation: IC50 means the concentration at which inhibition is half-maximal.
